Legend:
Experiment in all cases: SDS activity gel analysis, incorporation of ddNMP relative to dNMP (Example 2)
Format in all cases: biochemical
[1] = target: T1, E. coli DNA polymerase I, wild type (Pol I WT), R R S A K A I N F G L I Y G (Escherichia coli, UniProt P00582)
T1 construct: the large fragment of E. coli DNA polymerase I (Klenow fragment); made in house; crude lysate, renatured in gel
Protocol: (§1) Mutant DNA polymerases are screened for their ability to incorporate dideoxynucleotides by SDS activity gel analysis. The procedure is a modification of that described by Spanos and Hübscher 91 Methods in Enzymology 263, 1983 and Karawya et al. 135 Analytical Biochemistry 318, 1983. Briefly, 10 ml of cells are induced for 4 to 6 hours and then pelleted. The cell pellet is resuspended in 0.3 ml 25 mM Tris HCl, pH 7.0, 5 mM EDTA. 20 µl of the resuspended cells are mixed with 40 µl of a solution of 1% SDS (sodium dodecyl sulfate), 2% mercaptoethanol, 30 % glycerol, 0.04% bromphenol blue, and 100 mM TrisHCl, pH 6.8. The mixtures are incubated at 37 °C for 5 min, and then 20 µl aliquots are loaded in duplicate onto two SDS polyacrylamide gels. The SDS polyacrylamide gels consist of a resolving gel that contains 8% polyacrylamide, 0.27% bisacrylamide, 190 mM TrisHCl, pH 8.8, 0.05% SDS, and 25 µg/ml denatured salmon sperm DNA, and a stacking gel that consists of 5% polyacrylamide, 0.17% bisacrylamide, 150 mM TrisHCl, pH 6.8, and 0.1% SDS. The two gels are electrophoresed at 100 V for 13 hr at a constant temperature of 13 °C in an electrophoresis buffer consisting of 190 mM TrisHCl and pH 8.8, 0.05% SDS.
(§2) After electrophoresis, the gels are washed over 8 hr in 4 changes of 500 ml each of Renaturation Buffer (50 mM Tris.HCl, pH 7.5, 5 mM magnesium acetate, 1 mM dithiothreitol, 40 mM KCI, 400 µg/ml bovine serum albumin, 16% glycerol and 0.95 mM EDTA) at 4 °C.
(§3) The renatured proteins are assayed for DNA polymerase activity by incubating each of the two gels in 6 ml of Renaturation Buffer, 1.5 µM 4dNTPs, 4 µl of [a-^32P]dATP (800 Ci/mmol, 10 mCi/ml), and 80 µg of purified thioredoxin. One of the mixtures also contains 30 µM ddTTP (a 20-fold molar excess over dTTP). The mixtures are incubated for 4 hr at 37 °C (70 °C for 2 hr for thermophilic DNA polymerases).
(§4) After incubation the gels are washed for 8 hr against four changes of 5% trichloracetic acid and 1% sodium pyrophosphate. The gels are then dried and autoradiographed.
(§5) To determine whether a mutant DNA polymerase is discriminating more or less against ddTTP, the intensities of the radioactive bands are compared on the two gels that were incubated in the presence and absence of ddTTP, and the ratio of the signal in the two bands for the unmodified DNA polymerase is compared with the ratio of the signal in the two bands for each of the mutants.

[2] = target: T2, Taq DNA polymerase mutant Taq C-Q3, R R A A K T I I Y G V L Y G (Thermus aquaticus, UniProt P19821, F667Y/N666I); conditions: renatured enzyme in gel; 1.5 µM 4dNTPs with or without 30 µM ddTTP; 70 °C 2 hr
T2 construct: the large fragment of Taq DNA polymerase (KlenTaq or _Taq DNA polymerase); made in house; crude lysate, renatured in gel
Protocol: as §1, §2, §3, §4, §5

[3] = target: T3, Taq DNA polymerase mutant Taq C-Q2, R R A A K T F I Y G F L Y G (Thermus aquaticus, UniProt P19821, F667Y/I665F/N666I/V669F); conditions: renatured enzyme in gel; 1.5 µM 4dNTPs with or without 30 µM ddTTP; 70 °C 2 hr
T3 construct: the large fragment of Taq DNA polymerase (KlenTaq or _Taq DNA polymerase); made in house; crude lysate, renatured in gel
Protocol: as §1, §2, §3, §4, §5

[4] = target: T4, E. coli DNA polymerase I mutant Pol I C-K1, R D N A K T F I Y G F L Y G (Escherichia coli, UniProt P00582, A759T/F762Y/I760F/I765L/L764F/N761I/R755D/S756N); conditions: renatured enzyme in gel; 1.5 µM 4dNTPs with or without 30 µM ddTTP; 37 °C 4 hr
T4 construct: the large fragment of E. coli DNA polymerase I (Klenow fragment); made in house; crude lysate, renatured in gel
Protocol: as §1, §2, §3, §4, §5

[5] = target: T5, Taq DNA polymerase mutant Taq C-Q1, R D N A K T I N F G V L Y G (Thermus aquaticus, UniProt P19821, A661N/R660D); conditions: renatured enzyme in gel; 1.5 µM 4dNTPs with or without 30 µM ddTTP; 70 °C 2 hr
T5 construct: the large fragment of Taq DNA polymerase (KlenTaq or _Taq DNA polymerase); made in house; crude lysate, renatured in gel
Protocol: as §1, §2, §3, §4, §5

[6] = target: T6, E. coli DNA polymerase I mutant Pol I C-K4, R R S A K A I I Y G L I Y G (Escherichia coli, UniProt P00582, F762Y/N761I); conditions: renatured enzyme in gel; 1.5 µM 4dNTPs with or without 30 µM ddTTP; 37 °C 4 hr
T6 construct: the large fragment of E. coli DNA polymerase I (Klenow fragment); made in house; crude lysate, renatured in gel
Protocol: as §1, §2, §3, §4, §5

[7] = target: T7, Taq DNA polymerase, wild type (Taq WT), R R A A K T I N F G V L Y G (Thermus aquaticus, UniProt P19821); conditions: renatured enzyme in gel; 1.5 µM 4dNTPs with or without 30 µM ddTTP; 70 °C 2 hr
T7 construct: the large fragment of Taq DNA polymerase (KlenTaq or _Taq DNA polymerase); made in house; crude lysate, renatured in gel
Protocol: as §1, §2, §3, §4, §5

[8] = target: T8, Taq DNA polymerase mutant Taq C-Q4, R R A A K T I I F G V L Y G (Thermus aquaticus, UniProt P19821, N666I); conditions: renatured enzyme in gel; 1.5 µM 4dNTPs with or without 30 µM ddTTP; 70 °C 2 hr
T8 construct: the large fragment of Taq DNA polymerase (KlenTaq or _Taq DNA polymerase); made in house; crude lysate, renatured in gel
Protocol: as §1, §2, §3, §4, §5

[9] = target: T9, E. coli DNA polymerase I mutant Pol I C-K5, R R S A K A I I F G L I Y G (Escherichia coli, UniProt P00582, N761I); conditions: renatured enzyme in gel; 1.5 µM 4dNTPs with or without 30 µM ddTTP; 37 °C 4 hr
T9 construct: the large fragment of E. coli DNA polymerase I (Klenow fragment); made in house; crude lysate, renatured in gel
Protocol: as §1, §2, §3, §4, §5

[10] = target: T10, E. coli DNA polymerase I mutant Pol I C-K6 (F762Y), R R S A K A I N Y G L I Y G (Escherichia coli, UniProt P00582, F762Y)
T10 construct: the large fragment of E. coli DNA polymerase I (Klenow fragment); made in house; crude lysate, renatured in gel
Protocol: as §1, §2, §3, §4, §5

[11] = renatured enzyme in gel, 1.5 µM 4dNTPs with or without 30 µM ddTTP, 37 °C 4 hr

T1 sequence (P00582 324-928): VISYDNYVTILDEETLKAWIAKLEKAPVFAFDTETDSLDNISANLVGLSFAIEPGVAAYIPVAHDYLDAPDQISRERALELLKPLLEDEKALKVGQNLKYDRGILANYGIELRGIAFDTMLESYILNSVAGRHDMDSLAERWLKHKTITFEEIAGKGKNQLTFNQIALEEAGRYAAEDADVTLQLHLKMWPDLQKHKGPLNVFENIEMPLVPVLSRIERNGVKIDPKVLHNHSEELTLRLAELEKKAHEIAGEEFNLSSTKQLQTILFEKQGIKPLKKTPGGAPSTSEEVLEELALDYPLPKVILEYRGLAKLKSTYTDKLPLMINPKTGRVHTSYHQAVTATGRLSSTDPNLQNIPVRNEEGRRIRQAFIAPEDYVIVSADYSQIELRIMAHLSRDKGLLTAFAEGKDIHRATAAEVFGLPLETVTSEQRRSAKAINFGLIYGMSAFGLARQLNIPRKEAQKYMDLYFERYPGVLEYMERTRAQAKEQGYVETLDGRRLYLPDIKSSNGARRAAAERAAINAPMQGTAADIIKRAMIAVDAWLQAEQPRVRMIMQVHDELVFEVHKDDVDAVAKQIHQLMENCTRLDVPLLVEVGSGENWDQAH
T10 sequence (P00582 324-928 F762Y): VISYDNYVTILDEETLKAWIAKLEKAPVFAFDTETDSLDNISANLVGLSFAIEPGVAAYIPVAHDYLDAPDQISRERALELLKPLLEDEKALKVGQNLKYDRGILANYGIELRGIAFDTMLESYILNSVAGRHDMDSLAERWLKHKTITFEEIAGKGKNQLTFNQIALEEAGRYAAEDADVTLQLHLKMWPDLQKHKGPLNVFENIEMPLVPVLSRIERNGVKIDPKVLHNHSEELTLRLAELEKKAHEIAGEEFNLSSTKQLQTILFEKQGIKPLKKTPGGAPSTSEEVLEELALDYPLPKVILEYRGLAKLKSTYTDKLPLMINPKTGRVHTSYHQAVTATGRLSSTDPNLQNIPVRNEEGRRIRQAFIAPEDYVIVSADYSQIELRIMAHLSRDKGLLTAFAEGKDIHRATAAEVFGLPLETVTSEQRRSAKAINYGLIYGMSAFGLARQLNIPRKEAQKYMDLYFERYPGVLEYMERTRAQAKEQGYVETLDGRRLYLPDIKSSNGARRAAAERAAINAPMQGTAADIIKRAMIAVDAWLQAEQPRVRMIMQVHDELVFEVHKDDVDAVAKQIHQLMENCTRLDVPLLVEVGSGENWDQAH
T6 sequence (P00582 324-928 N761I/F762Y): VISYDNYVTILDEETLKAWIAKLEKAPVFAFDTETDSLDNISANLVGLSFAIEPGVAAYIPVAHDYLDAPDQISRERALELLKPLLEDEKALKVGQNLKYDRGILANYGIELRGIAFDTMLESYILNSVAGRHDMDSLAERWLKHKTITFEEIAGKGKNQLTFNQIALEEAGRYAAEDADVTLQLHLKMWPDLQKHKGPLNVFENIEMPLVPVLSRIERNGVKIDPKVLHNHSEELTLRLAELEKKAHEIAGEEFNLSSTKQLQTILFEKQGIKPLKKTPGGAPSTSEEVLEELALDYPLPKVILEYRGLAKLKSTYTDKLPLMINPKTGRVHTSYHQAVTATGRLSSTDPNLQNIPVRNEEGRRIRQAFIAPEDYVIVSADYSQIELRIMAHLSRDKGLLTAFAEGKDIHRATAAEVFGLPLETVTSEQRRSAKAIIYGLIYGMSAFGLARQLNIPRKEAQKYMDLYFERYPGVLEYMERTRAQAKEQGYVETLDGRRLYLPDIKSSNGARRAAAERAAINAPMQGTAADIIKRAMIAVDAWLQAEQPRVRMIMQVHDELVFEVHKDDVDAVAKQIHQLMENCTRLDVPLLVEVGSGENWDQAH
T3 sequence (P19821 236-832 I665F/N666I/F667Y/V669F): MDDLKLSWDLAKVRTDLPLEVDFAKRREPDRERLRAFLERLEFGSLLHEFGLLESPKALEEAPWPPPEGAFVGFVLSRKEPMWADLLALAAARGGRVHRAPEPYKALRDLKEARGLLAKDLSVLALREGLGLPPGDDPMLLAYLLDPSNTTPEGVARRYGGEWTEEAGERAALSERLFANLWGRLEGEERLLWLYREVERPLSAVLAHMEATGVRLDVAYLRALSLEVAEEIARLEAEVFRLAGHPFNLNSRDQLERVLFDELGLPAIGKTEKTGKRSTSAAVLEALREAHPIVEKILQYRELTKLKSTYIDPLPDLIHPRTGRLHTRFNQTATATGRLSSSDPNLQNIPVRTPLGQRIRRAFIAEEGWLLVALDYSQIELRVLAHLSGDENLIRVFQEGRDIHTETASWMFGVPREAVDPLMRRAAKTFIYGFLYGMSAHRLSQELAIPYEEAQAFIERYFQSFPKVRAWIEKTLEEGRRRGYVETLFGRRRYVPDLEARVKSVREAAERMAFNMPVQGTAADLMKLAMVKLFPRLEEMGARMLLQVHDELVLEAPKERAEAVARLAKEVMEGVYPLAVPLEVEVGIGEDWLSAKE
T5 sequence (P19821 236-832 R660D/A661N): as the sequence (P19821 236-832 I665F/N666I/F667Y/V669F) above, with R425D, A426N, F430I, I431N, Y432F, F434V counted along it
T8 sequence (P19821 236-832 N666I): as the sequence (P19821 236-832 I665F/N666I/F667Y/V669F) above, with F430I, Y432F, F434V counted along it
T2 sequence (P19821 236-832 N666I/F667Y): as the sequence (P19821 236-832 I665F/N666I/F667Y/V669F) above, with F430I, F434V counted along it
T4 sequence (P00582 324-928 R755D/S756N/A759T/I760F/N761I/F762Y/L764F/I765L): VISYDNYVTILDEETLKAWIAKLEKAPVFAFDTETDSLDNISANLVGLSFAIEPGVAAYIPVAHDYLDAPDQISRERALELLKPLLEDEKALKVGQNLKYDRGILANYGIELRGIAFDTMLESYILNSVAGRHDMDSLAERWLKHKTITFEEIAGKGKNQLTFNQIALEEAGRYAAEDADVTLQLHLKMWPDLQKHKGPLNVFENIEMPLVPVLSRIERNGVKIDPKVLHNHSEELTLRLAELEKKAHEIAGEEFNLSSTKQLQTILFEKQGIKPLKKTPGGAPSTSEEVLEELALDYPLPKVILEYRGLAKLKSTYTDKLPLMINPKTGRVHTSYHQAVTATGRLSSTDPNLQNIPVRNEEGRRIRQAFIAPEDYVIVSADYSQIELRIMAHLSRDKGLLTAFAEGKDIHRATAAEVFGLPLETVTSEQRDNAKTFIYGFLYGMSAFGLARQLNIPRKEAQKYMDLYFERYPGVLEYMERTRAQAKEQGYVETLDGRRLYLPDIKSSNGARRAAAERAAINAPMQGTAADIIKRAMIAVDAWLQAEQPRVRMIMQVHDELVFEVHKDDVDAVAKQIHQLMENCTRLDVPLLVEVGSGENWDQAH
T7 sequence (P19821 236-832 limits assumed): as the sequence (P19821 236-832 I665F/N666I/F667Y/V669F) above, with F430I, I431N, Y432F, F434V counted along it
T9 sequence (P00582 324-928 N761I): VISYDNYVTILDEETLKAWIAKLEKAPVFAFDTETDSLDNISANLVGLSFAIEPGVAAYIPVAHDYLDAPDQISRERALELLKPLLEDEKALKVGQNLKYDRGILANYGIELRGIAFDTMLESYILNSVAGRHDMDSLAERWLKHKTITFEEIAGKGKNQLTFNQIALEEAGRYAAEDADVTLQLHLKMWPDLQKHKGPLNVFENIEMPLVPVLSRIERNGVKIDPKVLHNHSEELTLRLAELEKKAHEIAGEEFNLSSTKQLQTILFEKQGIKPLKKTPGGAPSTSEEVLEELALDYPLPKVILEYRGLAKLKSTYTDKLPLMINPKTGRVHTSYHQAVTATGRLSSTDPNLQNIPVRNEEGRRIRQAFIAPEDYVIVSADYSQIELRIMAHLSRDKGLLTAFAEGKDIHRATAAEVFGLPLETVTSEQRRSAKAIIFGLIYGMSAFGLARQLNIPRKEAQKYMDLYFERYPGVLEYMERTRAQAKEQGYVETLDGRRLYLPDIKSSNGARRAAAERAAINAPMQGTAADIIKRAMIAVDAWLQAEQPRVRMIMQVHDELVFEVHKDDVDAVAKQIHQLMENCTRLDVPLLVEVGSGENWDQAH

**Q.** How did the “intensity of the bands in the presence versus the absence of ddTTP” value ([1]; 30 µM ddTTP (20-fold molar excess over dTTP), 1.5 µM 4dNTPs, within a factor of two) turn out when `Cc1cn([C@H]2CC[C@@H](COP(=O)(O)OP(=O)(O)OP(=O)(O)O)O2)c(=O)[nH]c1=O` [ddTTP] was run?
**A.** approximately the same intensity

**Q.** What about the “ddNTP Discrimination” value [1, 11] of the same compound?
**A.** High

**Q.** What about the “ddNTP Discrimination” value [2] of the same compound?
**A.** Low

**Q.** What about the “ddNTP Discrimination” value [3] of the same compound?
**A.** Low

**Q.** What about the “ddNTP Discrimination” value [4] of the same compound?
**A.** Low

**Q.** What about the “ddNTP Discrimination” value [5] of the same compound?
**A.** High

**Q.** And the “ddNTP Discrimination” value [6]?
**A.** Low

**Q.** What about the “ddNTP Discrimination” value [7] of the same compound?
**A.** High

**Q.** What about the “ddNTP Discrimination” value [8] of the same compound?
**A.** High

**Q.** And the “ddNTP Discrimination” value [9]?
**A.** High

**Q.** What about the activity at 30 µM ([10]; read-out: intensity of the bands in the presence of ddTTP relative to the absence of ddTTP) of the same compound?
**A.** < 5%

**Q.** And the “ddNTP Discrimination” value [10, 11]?
**A.** Low

Reference: patent EP0655506B1 (priority 1994, dated 1995)
